Species on record: Rattus norvegicus
Experiment: DrugMatrix - Regimen: Daily Repeat
Format: toxicity, organism-based, Sprague-Dawley
Parameters: regimen Daily Repeat, gender Male, age 6-8 weeks
Conditions: in vivo, iv, vehicle 100 % SALINE; for ABSOLUTE BASOPHIL / ABSOLUTE EOSINOPHIL / ABSOLUTE LYMPHOCYTE / ABSOLUTE MONOCYTE / ABSOLUTE SEGMENTED NEUTROPHIL / BASOPHIL / EOSINOPHIL / ERYTHROCYTE COUNT / HEMATOCRIT / HEMOGLOBIN / LEUKOCYTE COUNT / LYMPHOCYTE / MEAN CORPUSCULAR HEMOGLOBIN / MEAN CORPUSCULAR HEMOGLOBIN CONCENTRATION / MEAN CORPUSCULAR VOLUME / MONOCYTE / NEUTROPHIL / NUCLEATED RED BLOOD CELLS / PLATELET COUNT: tissue Blood; for ALANINE AMINOTRANSFERASE / ALBUMIN / ALKALINE PHOSPHATASE / ASPARTATE AMINOTRANSFERASE / BLOOD UREA NITROGEN / CARBON DIOXIDE / CHLORIDE / CHOLESTEROL / CREATINE PHOSPHOKINASE / CREATININE / GLUCOSE / LACTATE DEHYDROGENASE / LIPASE / PHOSPHORUS / POTASSIUM / SODIUM / TOTAL BILIRUBIN / TOTAL PROTEIN / URIC ACID: tissue Plasma
[1] = 0 mg/kg, 72 h, dose level Control, time 3 day
[2] = 0 mg/kg, 120 h, dose level Control, time 5 day
[3] = 12 mg/kg, 72 h, dose level High, time 3 day

Cc1c(N)nc([C@H](CC(N)=O)NC[C@H](N)C(N)=O)nc1C(=O)N[C@H](C(=O)N[C@H](C)[C@@H](O)[C@H](C)C(=O)N[C@H](C(=O)NCCc1nc(-c2nc(C(=O)NCCC[S+](C)C)cs2)cs1)[C@@H](C)O)[C@@H](O[C@@H]1O[C@@H](CO)[C@@H](O)[C@H](O)[C@@H]1O[C@H]1O[C@H](CO)[C@@H](O)[C@H](OC(N)=O)[C@@H]1O)c1c[nH]cn1.[Br-] [BLEOMYCIN A2]
ABSOLUTE BASOPHIL [1]: 0 CELLS/uL | ABSOLUTE EOSINOPHIL [1]: 33.67 CELLS/uL | ABSOLUTE LYMPHOCYTE [1]: 12123.5 CELLS/uL | ABSOLUTE MONOCYTE [1]: 243.5 CELLS/uL | ABSOLUTE SEGMENTED NEUTROPHIL [1]: 1282.67 CELLS/uL | BASOPHIL [1]: 0% | EOSINOPHIL [1]: 0.33% | ERYTHROCYTE COUNT [1]: 5.18 x10E6/uL | HEMATOCRIT [1]: 32.63% | HEMOGLOBIN [1]: 12.87 G/DL | LEUKOCYTE COUNT [1]: 13.68 x10E3/uL | LYMPHOCYTE [1]: 88.67% | MEAN CORPUSCULAR HEMOGLOBIN [1]: 24.98 pg | MEAN CORPUSCULAR HEMOGLOBIN CONCENTRATION [1]: 39.48 G/DL | MEAN CORPUSCULAR VOLUME [1]: 63.23 fL | MONOCYTE [1]: 1.83% | NEUTROPHIL [1]: 9.17% | NUCLEATED RED BLOOD CELLS [1]: 0.17 /100WBC | PLATELET COUNT [1]: 1114.5 x10E3/uL | ALANINE AMINOTRANSFERASE [1]: 46.17 u/L | ALBUMIN [1]: 4.15 G/DL | ALKALINE PHOSPHATASE [1]: 374.67 u/L | ASPARTATE AMINOTRANSFERASE [1]: 89.33 u/L | BLOOD UREA NITROGEN [1]: 14.83 mg/dL | CARBON DIOXIDE [1]: 25.67 mmol/L | CHLORIDE [1]: 101.17 MEQ/L | CHOLESTEROL [1]: 63.5 mg/dL | CREATINE PHOSPHOKINASE [1]: 494.67 u/L | CREATININE [1]: 0.17 mg/dL | GLUCOSE [1]: 163 mg/dL | LACTATE DEHYDROGENASE [1]: 269.33 u/L | LIPASE [1]: 10.67 u/L | PHOSPHORUS [1]: 11.27 mg/dL | POTASSIUM [1]: 5.85 MEQ/L | SODIUM [1]: 141.68 MEQ/L | TOTAL BILIRUBIN [1]: 0.18 mg/dL | TOTAL PROTEIN [1]: 5.87 G/DL | URIC ACID [1]: 1.28 mg/dL | ABSOLUTE BASOPHIL [2]: 0 CELLS/uL | ABSOLUTE EOSINOPHIL [2]: 24.67 CELLS/uL | ABSOLUTE LYMPHOCYTE [2]: 11832.83 CELLS/uL | ABSOLUTE MONOCYTE [2]: 279.67 CELLS/uL | ABSOLUTE SEGMENTED NEUTROPHIL [2]: 1446.17 CELLS/uL | BASOPHIL [2]: 0% | EOSINOPHIL [2]: 0.17% | ERYTHROCYTE COUNT [2]: 5.61 x10E6/uL | HEMATOCRIT [2]: 35.02% | HEMOGLOBIN [2]: 13.82 G/DL | LEUKOCYTE COUNT [2]: 13.58 x10E3/uL | LYMPHOCYTE [2]: 87.67% | MEAN CORPUSCULAR HEMOGLOBIN [2]: 24.68 pg | MEAN CORPUSCULAR HEMOGLOBIN CONCENTRATION [2]: 39.5 G/DL | MEAN CORPUSCULAR VOLUME [2]: 62.42 fL | MONOCYTE [2]: 2% | NEUTROPHIL [2]: 10.17% | NUCLEATED RED BLOOD CELLS [2]: 0 /100WBC | PLATELET COUNT [2]: 1178.17 x10E3/uL | ALANINE AMINOTRANSFERASE [2]: 52.83 u/L | ALBUMIN [2]: 4.12 G/DL | ALKALINE PHOSPHATASE [2]: 370 u/L | ASPARTATE AMINOTRANSFERASE [2]: 100.5 u/L | BLOOD UREA NITROGEN [2]: 15.17 mg/dL | CARBON DIOXIDE [2]: 28.83 mmol/L | CHLORIDE [2]: 101 MEQ/L | CHOLESTEROL [2]: 69.5 mg/dL | CREATINE PHOSPHOKINASE [2]: 488.67 u/L | CREATININE [2]: 0.23 mg/dL | GLUCOSE [2]: 165 mg/dL | LACTATE DEHYDROGENASE [2]: 502.17 u/L | LIPASE [2]: 11 u/L | PHOSPHORUS [2]: 11.7 mg/dL | POTASSIUM [2]: 5.85 MEQ/L | SODIUM [2]: 142.45 MEQ/L | TOTAL BILIRUBIN [2]: 0.18 mg/dL | TOTAL PROTEIN [2]: 5.85 G/DL | URIC ACID [2]: 1.43 mg/dL | ABSOLUTE BASOPHIL [3]: 0 CELLS/uL | ABSOLUTE EOSINOPHIL [3]: 0 CELLS/uL | ABSOLUTE LYMPHOCYTE [3]: 10537 CELLS/uL | ABSOLUTE MONOCYTE [3]: 346.67 CELLS/uL | ABSOLUTE SEGMENTED NEUTROPHIL [3]: 2083 CELLS/uL | BASOPHIL [3]: 0% | EOSINOPHIL [3]: 0% | ERYTHROCYTE COUNT [3]: 6.18 x10E6/uL | HEMATOCRIT [3]: 38.57% | HEMOGLOBIN [3]: 15.13 G/DL | LEUKOCYTE COUNT [3]: 12.97 x10E3/uL | LYMPHOCYTE [3]: 81.67% | MEAN CORPUSCULAR HEMOGLOBIN [3]: 24.5 pg | MEAN CORPUSCULAR HEMOGLOBIN CONCENTRATION [3]: 39.23 G/DL | MEAN CORPUSCULAR VOLUME [3]: 62.37 fL | MONOCYTE [3]: 2.67% | NEUTROPHIL [3]: 15.67% | NUCLEATED RED BLOOD CELLS [3]: 0 /100WBC | PLATELET COUNT [3]: 1055.67 x10E3/uL | ALANINE AMINOTRANSFERASE [3]: 38 u/L | ALBUMIN [3]: 3.8 G/DL | ALKALINE PHOSPHATASE [3]: 233.67 u/L | ASPARTATE AMINOTRANSFERASE [3]: 110 u/L | BLOOD UREA NITROGEN [3]: 10.33 mg/dL | CARBON DIOXIDE [3]: 27.67 mmol/L | CHLORIDE [3]: 100.33 MEQ/L | CHOLESTEROL [3]: 56.33 mg/dL | CREATINE PHOSPHOKINASE [3]: 923.67 u/L | CREATININE [3]: 0.12 mg/dL | GLUCOSE [3]: 136.67 mg/dL | LACTATE DEHYDROGENASE [3]: 439.67 u/L | LIPASE [3]: 9.67 u/L | PHOSPHORUS [3]: 10.5 mg/dL | POTASSIUM [3]: 5.86 MEQ/L | SODIUM [3]: 140.77 MEQ/L | TOTAL BILIRUBIN [3]: 0.13 mg/dL | TOTAL PROTEIN [3]: 5.47 G/DL | URIC ACID [3]: 1.3 mg/dL

— ChEMBL document CHEMBL3885881, “DrugMatrix”
